PubChem BioAssay AID1963435 (Molecular Pharmacology Branch, DTP, NCI, 2024)
“And” between values parts separate entries of the source, which are not always exact repeats. Equal entries are not always repeated.

Tested on: PANC-1 complex spheroid growth, percent test/control
Assay: Anticancer human tumor PANC-1 cell line growth inhibition [Asc];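 also: spheroids exposed to agents for 7 days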;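 as to viability, T/C: percent viability relative to DMSO vehicle wells taken as 100%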
Details: for viability, T/C: stronger effect = lower value; active = viability on the fitted dose curve at most 10% of control; inactive = the rest
Outline: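 Spheroid model: tumor line + HUVEC + hMSC. Single agents and combinations; top conc. at/near clinical Cmax (10 microM if undetermined), half-log dilutions. DMSO stocks at 800-fold test concentration.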

Cn1ncnc1[C@H]1c2n[nH]c(=O)c3cc(F)cc(c23)N[C@@H]1c1ccc(F)cc1 + CCN1C(C(=O)NC23CCC(C(=O)O)(CC2)CC3)C(c2cccc(Cl)c2F)C2(C(=O)Nc3cc(Cl)ccc32)C12CCCCC2
> 100 nM: IC50 (curve of first compound, second compound 0.00949 µM) | IC50 (curve of first compound, second compound 0.03 µM) | IC50 (curve of first compound, second compound 0.0949 µM) | IC50 (curve of first compound, second compound 0.3 µM) | IC50 (curve of first compound, second compound 0.949 µM) | IC50 (curve of first compound, second compound 3 µM)
inactive: viability, T/C (second compound 0.00949 µM, first compound 0.000316 µM) 101% | viability, T/C (second compound 0.00949 µM, first compound 0.001 µM) 89.6% | viability, T/C (second compound 0.00949 µM, first compound 0.00316 µM) 97.4% | viability, T/C (second compound 0.00949 µM, first compound 0.01 µM) 96.7% | viability, T/C (second compound 0.00949 µM, first compound 0.0316 µM) 111% | viability, T/C (second compound 0.00949 µM, first compound 0.1 µM) 113% | viability, T/C (second compound 0.03 µM, first compound 0.000316 µM) 107% | viability, T/C (second compound 0.03 µM, first compound 0.001 µM) 89.5% | viability, T/C (second compound 0.03 µM, first compound 0.00316 µM) 98.4% | viability, T/C (second compound 0.03 µM, first compound 0.01 µM) 98.9% | viability, T/C (second compound 0.03 µM, first compound 0.0316 µM) 109% | viability, T/C (second compound 0.03 µM, first compound 0.1 µM) 101% | viability, T/C (second compound 0.0949 µM, first compound 0.000316 µM) 93.4% | viability, T/C (second compound 0.0949 µM, first compound 0.001 µM) 98.1% | viability, T/C (second compound 0.0949 µM, first compound 0.00316 µM) 103% | viability, T/C (second compound 0.0949 µM, first compound 0.01 µM) 94.2% | viability, T/C (second compound 0.0949 µM, first compound 0.0316 µM) 108% | viability, T/C (second compound 0.0949 µM, first compound 0.1 µM) 102% | viability, T/C (second compound 0.3 µM, first compound 0.000316 µM) 98.8% | viability, T/C (second compound 0.3 µM, first compound 0.001 µM) 96.2% | viability, T/C (second compound 0.3 µM, first compound 0.00316 µM) 109% | viability, T/C (second compound 0.3 µM, first compound 0.01 µM) 101% | viability, T/C (second compound 0.3 µM, first compound 0.0316 µM) 110% | viability, T/C (second compound 0.3 µM, first compound 0.1 µM) 106% | viability, T/C (second compound 0.949 µM, first compound 0.000316 µM) 111% | viability, T/C (second compound 0.949 µM, first compound 0.001 µM) 117% | viability, T/C (second compound 0.949 µM, first compound 0.00316 µM) 106% | viability, T/C (second compound 0.949 µM, first compound 0.01 µM) 107% | viability, T/C (second compound 0.949 µM, first compound 0.0316 µM) 105% | viability, T/C (second compound 0.949 µM, first compound 0.1 µM) 114% | viability, T/C (second compound 3 µM, first compound 0.000316 µM) 109% | viability, T/C (second compound 3 µM, first compound 0.001 µM) 123% | viability, T/C (second compound 3 µM, first compound 0.00316 µM) 124% | viability, T/C (second compound 3 µM, first compound 0.01 µM) 116% | viability, T/C (second compound 3 µM, first compound 0.0316 µM) 125% | viability, T/C (second compound 3 µM, first compound 0.1 µM) 106%

CCN1CCN(Cc2ccc(Nc3ncc(F)c(-c4cc(F)c5nc(C)n(C(C)C)c5c4)n3)nc2)CC1
> 1000 nM: IC50 (curve of compound)
inactive: viability, T/C (compound 0.00316 µM) 98.9% and 103% and 108% | viability, T/C (compound 0.01 µM) 107% and 98.8% and 97.8% | viability, T/C (compound 0.0316 µM) 111% (2×) and 121% | viability, T/C (compound 0.1 µM) 114% and 116% and 118% | viability, T/C (compound 0.316 µM) 122% and 124% and 128% | viability, T/C (compound 1 µM) 135% and 128% and 142%

COc1c(OCCCN2CCOCC2)ccc2c3n(c(=NC(=O)c4cnc(N)nc4)nc12)CCN3
511 nM and 302 nM and 385 nM: IC50 (curve of compound)
inactive: viability, T/C (compound 0.00316 µM) 101% and 93.1% and 100% | viability, T/C (compound 0.01 µM) 89.9% and 93.9% and 92.4% | viability, T/C (compound 0.0316 µM) 92% and 108% and 94.5% | viability, T/C (compound 0.1 µM) 78.6% and 67.6% and 82.1% | viability, T/C (compound 0.316 µM) 52.2% and 63.2% and 49.7% | viability, T/C (compound 1 µM) 39.4% and 36.3% and 28.6%

CCN1CCN(Cc2ccc(Nc3ncc(F)c(-c4cc(F)c5nc(C)n(C(C)C)c5c4)n3)nc2)CC1 + CNC(C)C(=O)NC1CN(S(=O)(=O)c2cccc(S(=O)(=O)N3CCC4CCC(C(=O)NC(c5ccccc5)c5ccccc5)N4C(=O)C(NC(=O)C(C)NC)C3)c2)CCC2CCC(C(=O)NC(c3ccccc3)c3ccccc3)N2C1=O
> 1000 nM: IC50 (curve of first compound, second compound 0.00316 µM) | IC50 (curve of first compound, second compound 0.01 µM) | IC50 (curve of first compound, second compound 0.0316 µM) | IC50 (curve of first compound, second compound 0.1 µM) | IC50 (curve of first compound, second compound 0.316 µM) | IC50 (curve of first compound, second compound 1 µM)
inactive: viability, T/C (second compound 0.00316 µM, first compound 0.00316 µM) 119% | viability, T/C (second compound 0.00316 µM, first compound 0.01 µM) 108% | viability, T/C (second compound 0.00316 µM, first compound 0.0316 µM) 105% | viability, T/C (second compound 0.00316 µM, first compound 0.1 µM) 117% | viability, T/C (second compound 0.00316 µM, first compound 0.316 µM) 129% | viability, T/C (second compound 0.00316 µM, first compound 1 µM) 143% | viability, T/C (second compound 0.01 µM, first compound 0.00316 µM) 95.1% | viability, T/C (second compound 0.01 µM, first compound 0.01 µM) 96.8% | viability, T/C (second compound 0.01 µM, first compound 0.0316 µM) 108% | viability, T/C (second compound 0.01 µM, first compound 0.1 µM) 116% | viability, T/C (second compound 0.01 µM, first compound 0.316 µM) 124% | viability, T/C (second compound 0.01 µM, first compound 1 µM) 127% | viability, T/C (second compound 0.0316 µM, first compound 0.00316 µM) 96% | viability, T/C (second compound 0.0316 µM, first compound 0.01 µM) 101% | viability, T/C (second compound 0.0316 µM, first compound 0.0316 µM) 107% | viability, T/C (second compound 0.0316 µM, first compound 0.1 µM) 112% | viability, T/C (second compound 0.0316 µM, first compound 0.316 µM) 116% | viability, T/C (second compound 0.0316 µM, first compound 1 µM) 136% | viability, T/C (second compound 0.1 µM, first compound 0.00316 µM) 102% | viability, T/C (second compound 0.1 µM, first compound 0.01 µM) 102% | viability, T/C (second compound 0.1 µM, first compound 0.0316 µM) 102% | viability, T/C (second compound 0.1 µM, first compound 0.1 µM) 97.4% | viability, T/C (second compound 0.1 µM, first compound 0.316 µM) 107% | viability, T/C (second compound 0.1 µM, first compound 1 µM) 118% | viability, T/C (second compound 0.316 µM, first compound 0.00316 µM) 92.2% | viability, T/C (second compound 0.316 µM, first compound 0.01 µM) 91.8% | viability, T/C (second compound 0.316 µM, first compound 0.0316 µM) 109% | viability, T/C (second compound 0.316 µM, first compound 0.1 µM) 105% | viability, T/C (second compound 0.316 µM, first compound 0.316 µM) 118% | viability, T/C (second compound 0.316 µM, first compound 1 µM) 129% | viability, T/C (second compound 1 µM, first compound 0.00316 µM) 98.2% | viability, T/C (second compound 1 µM, first compound 0.01 µM) 98.2% | viability, T/C (second compound 1 µM, first compound 0.0316 µM) 99.5% | viability, T/C (second compound 1 µM, first compound 0.1 µM) 96.5% | viability, T/C (second compound 1 µM, first compound 0.316 µM) 109% | viability, T/C (second compound 1 µM, first compound 1 µM) 113%
